Measurements reported in publication PMC11190158, “Study on the design, synthesis, and activity of anti-tumor staple peptides targeting MDM2/MDMX” (Frontiers in Chemistry, 2024).
Converted amounts (≈) assume the structure as drawn. “Also recorded” adds a separate entry of the source. Positions of bridges follow the written chain, without caps; N, C: chain ends. Non-standard residues stand in square brackets, D forms with d. Residues, ends and D or L forms follow the SMILES beside them. S5 = C=CCCC[C@](C)(N)C(=O)O

Key:
MDM2 = test system: MDM2; set-up: method as in 2 sources, one per row (each row's own in cited_ref): ref Zhan and Lu, 2011; Brown et al., 2013; Wade et al., 2013 ||| ref Zhan et al., 2012a; Zhan et al., 2012b; Li et al., 2021; conditions: in words, surface plasmon resonance and fluorescence polarization, ref Zhan et al., 2012a, 2012b, Li et al., 2021; cited from earlier work
MDMX = test system: MDMX; set-up: method as in 2 sources, one per row (each row's own in cited_ref): ref Zhan and Lu, 2011; Brown et al., 2013; Wade et al., 2013 ||| ref Zhan et al., 2012a; Zhan et al., 2012b; Li et al., 2021; conditions: in words, surface plasmon resonance and fluorescence polarization, ref Zhan et al., 2012a, 2012b, Li et al., 2021; cited from earlier work
tumor cells = assay: Cytotoxicity / cell viability assay (CCK-8), cell line not given; type: cell-based, human
Description: Human colon cancer cell lines HCT116 p53^+/+, HCT116 p53^−/−, U87 MG, and U251 were maintained in McCoy’s 5A Medium supplemented with 10% heat-inactivated FCS and 1% penicillin–streptomycin at 37°C, 5% CO2, and under complete humidification conditions. The cells (3×10^3 cells/well) were inoculated in 96-well plates and treated with different concentrations of polypeptides for 72 h. The absorbance at 450 nm was then measured using the CCK-8 Kit, and the percentage of cell survival was calculated based on the ratio of the sample well to the reference well A450.

circular dichroism = conditions: phosphate buffer (PB); pH 7.2; ns °C; 10-50 (printed mmol/L, probably uM)
HCT116 p53^−/− = conditions: 72 h
HCT116 p53^+/+ = conditions: 72 h
U87 MG [1] = conditions: 72 h
[2] = Circular dichroism, degree of helicity; type: physicochemical; conditions: CD, PB pH 7.2, 10–50 mmol/L peptide, ambient temperature, 1-mm path length, 185–255 nm
Description: The staple peptides were soluble in PB with a pH of 7.2 at a concentration of 10–50 mmol/L. CD experiments were performed using a Jasco J-715 Spectropolarimeter at ambient temperature. A quartz cuvette with a 1-mm path length was used for the spectrum collection (wavelength, 185–255 nm; step resolution, 0.0001 mm; speed, 1.2 μm/h; accumulations, 6; and bandwidth, 0.0001 mm). We calculated the helicity of each peptide using Eq.

U251 [3] = conditions: 72 h
U87 MG [4] = assay: Apoptosis assay (Annexin V/PI, flow cytometry); type: cell-based, human; set-up: LR / UR / LR+UR: unit not given here; conditions: for LR+UR: total apoptosis
Description: Fluorescent probes were used to detect normal viable cells, apoptotic cells, and necrotic cells by double labeling of cells, and the morphological characteristics of the apoptotic cells were explored. A Petri dish with 8–90% confluence was taken from the incubator. Tumor cells were collected, and the cells were counted under the microscope through the cell slide. A cell suspension of the appropriate concentration was prepared. Different concentrations of peptide samples were added according to the experimental group. Three compound wells were set up in each group; the control group was set up without peptides, and the blank group was set up without cells. […] Then, 2 μL of PI solution was added before placing it on the machine, and one tube without dye was used as a negative control. On-machine assays were performed with flow cytometry. […] Total apoptosis = LR region + UR region.

U251 [5] = assay: Apoptosis assay (Annexin V/PI, flow cytometry); type: cell-based, human; set-up: LR / UR / LR+UR: unit not given here; conditions: for LR+UR: total apoptosis
Description: Fluorescent probes were used to detect normal viable cells, apoptotic cells, and necrotic cells by double labeling of cells, and the morphological characteristics of the apoptotic cells were explored. A Petri dish with 8–90% confluence was taken from the incubator. Tumor cells were collected, and the cells were counted under the microscope through the cell slide. A cell suspension of the appropriate concentration was prepared. Different concentrations of peptide samples were added according to the experimental group. Three compound wells were set up in each group; the control group was set up without peptides, and the blank group was set up without cells. Then, 300 μL of Binding Buffer was added after 24 h of dosing, and 2 μL of Annexin V was added to each tube, pipetted to mix it well, and then incubated at room temperature in the dark for 15 min. Then, 2 μL of PI solution was added before placing it on the machine, and one tube without dye was used as a negative control. On-machine assays were performed with flow cytometry. […] Total apoptosis = LR region + UR region.

U251 [6] = assay: Apoptosis assay (Annexin V/PI, flow cytometry); type: cell-based, human; conditions: U251, 20 μM, 36 h (legend; method 24 h), mean
[7] = 20 μM, 36 h (legend; method 24 h), Annexin V/PI, mean
[8] = U251, 5 μM, sample 9 (replicate 1)
[9] = U251, 5 μM, sample 10 (replicate 2)
[10] = U251, 10 μM, sample 11 (replicate 1)
[11] = U251, 10 μM, sample 12 (replicate 2)
[12] = U251, 20 μM, sample 13 (replicate 1)
[13] = U251, 20 μM, sample 14 (replicate 2)

## LTFLEYWAQLMQ [PMI-M3]
MDM2
  binding to MDM2: binds well
MDMX
  binding to MDMX: binds well

## CSCC[C@H](NC(=O)[C@H](CC(C)C)NC(=O)[C@]1(C)CCCC=CCCC[C@](C)(NC(=O)[C@H](CC(C)C)NC(=O)[C@H](Cc2ccccc2)NC(=O)[C@@H](NC(=O)[C@H](CC(C)C)NC(=O)[C@H](CCCCN)NC(C)=O)[C@@H](C)O)C(=O)N[C@@H](Cc2ccc(O)cc2)C(=O)N[C@@H](Cc2c[nH]c3ccccc23)C(=O)N[C@@H](C)C(=O)N1)C(=O)N[C@@H](CCC(N)=O)C(=O)N[C@@H](CCCCN)C(N)=O [SM3-4] (Ac-KLTFL[S5]YWA[S5]LMQK-NH2; staple 6-10)
Tumor cells; HCT116 p53^+/+, HCT116 p53−/−, U87 and U251 cell viability experiments, versus template straight-chain peptide
  anti-proliferative / tumor suppressive activity (in words): significantly improved; also recorded: strongest anti-proliferative activity
Tumor cells; compared to linear peptide M3-1, cell line not named
  concentration at which in vitro anti-tumor activity was exhibited: 25 µM
Circular dichroism
  helicity: 29%
HCT116 p53^−/−
  IC50: 33.2 µM
HCT116 p53^+/+
  IC50: 77.5 µM
U87 MG [1]
  IC50: 7.84 µM
  minimum inhibitory concentration: 8 µM (≈ 14.7 µg/mL)
[2]
  helicity: 28.96%
U251 [3]
  IC50: 14.7 µM
  minimum inhibitory concentration: 16 µM (≈ 29.3 µg/mL)
U87 MG [4]; 5 μM, sample 1 (replicate 1)
  LR: 1.25
  UR: 3.07
  LR+UR: 4.32
U87 MG [4]; 5 μM, sample 2 (replicate 2)
  LR: 1.04
  UR: 3.27
  LR+UR: 4.31
U87 MG [4]; 10 μM, sample 3 (replicate 1)
  LR: 1.11
  UR: 6.12
  LR+UR: 7.23
U87 MG [4]; 10 μM, sample 4 (replicate 2)
  LR: 2.02
  UR: 3.16
  LR+UR: 5.18
U87 MG [4]; [7]
  LR: apoptotic cells: 29.91%
  UR: dead cells: 42.285%
U87 MG [4]; 20 μM, sample 5 (replicate 1)
  LR: 26.96
  UR: 37.58
  LR+UR: 64.54
U87 MG [4]; 20 μM, sample 6 (replicate 2)
  LR: 32.86
  UR: 46.99
  LR+UR: 79.85
U87 MG [4]; 5, 10 and 20 μM
  apoptotic effect (in words): significant apoptotic effect
U251 [5]; [8]
  LR: 0.89
  UR: 2.73
  LR+UR: 3.62
U251 [5]; [9]
  LR: 0.47
  UR: 1.92
  LR+UR: 2.39
U251 [5]; [10]
  LR: 1.47
  UR: 1.92
  LR+UR: 3.39
U251 [5]; [11]
  LR: 1.12
  UR: 1.94
  LR+UR: 3.06
U251 [5]; [12]
  LR: 6.85
  UR: 8.8
  LR+UR: 15.65
U251 [5]; [13]
  LR: 4.92
  UR: 13.66
  LR+UR: 18.58
U251 [5]; U251, 5, 10 and 20 μM
  apoptotic effect (in words): significant apoptotic effect
U251 [6]
  LR: apoptotic cells: 5.885%
  UR: dead cells: 11.23%
